Each block holds one compound with its values, some of them ahead of it.
Experiments:
Histamine H3 receptor [1] = target: T1, Histamine H3 receptor (Cavia porcellus, UniProt Q9JI35); test: Displacement of [3H]N-alpha-methylhistamine from histamine H3 receptor in guinea pig brain
Histamine H3 receptor [2] = target: T1, Histamine H3 receptor; test: Antagonist potency against histamine H3 receptor in an electrically stimulated guinea pig ileum; type: functional, tissue-based; conditions: read-out: pA2 (converted)
Cytochrome P450 2D6 = Cytochrome P450 2D6 (Homo sapiens, UniProt P10635); test: Inhibition of CYP2D6 in human liver microsomes; type: ADME, Microsome
Histamine H3 receptor [3] = target: Histamine H3 receptor (Homo sapiens, UniProt Q9Y5N1); test: Displacement of [3H]N-alpha-methylhistamine from histamine H3 receptor in human brain
Histamine H1 receptor = Histamine H1 receptor (Cavia porcellus, UniProt P31389); test: Displacement of [3H]N-alpha-methylhistamine from histamine H1 receptor in guinea pig brain
Sequence of Histamine H1 receptor (P31389 whole entry): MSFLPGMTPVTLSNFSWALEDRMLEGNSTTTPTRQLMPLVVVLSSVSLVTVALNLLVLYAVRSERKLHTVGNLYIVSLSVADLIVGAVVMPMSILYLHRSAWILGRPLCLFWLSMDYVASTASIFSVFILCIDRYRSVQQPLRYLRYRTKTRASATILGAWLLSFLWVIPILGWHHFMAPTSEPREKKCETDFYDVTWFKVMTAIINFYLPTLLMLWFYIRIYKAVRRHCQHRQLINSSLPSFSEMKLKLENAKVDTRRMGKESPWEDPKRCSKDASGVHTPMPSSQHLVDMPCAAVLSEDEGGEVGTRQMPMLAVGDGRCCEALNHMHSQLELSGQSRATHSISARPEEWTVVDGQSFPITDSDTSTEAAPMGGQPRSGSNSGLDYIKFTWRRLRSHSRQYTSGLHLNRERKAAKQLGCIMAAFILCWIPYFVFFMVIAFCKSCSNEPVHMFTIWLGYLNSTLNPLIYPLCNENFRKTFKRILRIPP

T1 sequence (Q9JI35 whole entry): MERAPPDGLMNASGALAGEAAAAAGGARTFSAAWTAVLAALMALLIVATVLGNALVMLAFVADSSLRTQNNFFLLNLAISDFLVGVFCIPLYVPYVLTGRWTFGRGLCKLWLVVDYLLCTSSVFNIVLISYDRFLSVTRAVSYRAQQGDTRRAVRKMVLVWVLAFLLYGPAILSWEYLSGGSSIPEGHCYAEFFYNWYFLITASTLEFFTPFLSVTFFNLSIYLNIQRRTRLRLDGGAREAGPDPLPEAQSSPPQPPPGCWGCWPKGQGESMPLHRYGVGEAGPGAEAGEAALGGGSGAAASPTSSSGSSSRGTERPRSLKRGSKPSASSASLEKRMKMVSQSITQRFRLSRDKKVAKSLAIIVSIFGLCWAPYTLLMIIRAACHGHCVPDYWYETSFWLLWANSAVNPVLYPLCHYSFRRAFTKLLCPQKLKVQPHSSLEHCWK
Sequence of Histamine H3 receptor (Homo sapiens, UniProt Q9Y5N1) (Q9Y5N1 whole entry): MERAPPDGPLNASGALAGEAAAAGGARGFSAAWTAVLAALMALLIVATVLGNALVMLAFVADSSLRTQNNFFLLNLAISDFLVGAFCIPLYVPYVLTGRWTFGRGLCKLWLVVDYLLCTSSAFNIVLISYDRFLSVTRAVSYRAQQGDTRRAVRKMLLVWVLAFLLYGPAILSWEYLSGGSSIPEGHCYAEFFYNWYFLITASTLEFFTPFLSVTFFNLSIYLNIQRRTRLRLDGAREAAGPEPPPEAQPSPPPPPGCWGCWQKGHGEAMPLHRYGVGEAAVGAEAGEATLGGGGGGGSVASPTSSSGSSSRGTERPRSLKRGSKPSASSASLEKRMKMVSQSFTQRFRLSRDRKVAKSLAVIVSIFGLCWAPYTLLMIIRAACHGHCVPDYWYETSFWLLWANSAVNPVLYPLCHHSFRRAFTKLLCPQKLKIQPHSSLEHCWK
Sequence of Cytochrome P450 2D6 (P10635 whole entry): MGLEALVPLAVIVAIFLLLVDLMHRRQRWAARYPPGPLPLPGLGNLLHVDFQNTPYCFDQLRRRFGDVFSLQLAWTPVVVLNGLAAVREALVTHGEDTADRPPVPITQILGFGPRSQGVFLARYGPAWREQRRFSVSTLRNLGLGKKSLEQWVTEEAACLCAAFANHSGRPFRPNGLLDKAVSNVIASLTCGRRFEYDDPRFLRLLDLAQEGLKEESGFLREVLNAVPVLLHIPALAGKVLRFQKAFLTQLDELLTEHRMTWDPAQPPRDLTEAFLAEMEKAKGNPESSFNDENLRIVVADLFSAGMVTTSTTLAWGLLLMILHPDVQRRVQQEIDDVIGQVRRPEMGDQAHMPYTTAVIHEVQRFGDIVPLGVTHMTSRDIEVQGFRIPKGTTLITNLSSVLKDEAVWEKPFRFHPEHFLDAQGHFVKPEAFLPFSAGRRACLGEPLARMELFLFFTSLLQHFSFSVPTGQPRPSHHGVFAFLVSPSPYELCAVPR

Compound: CCCCCCC(=O)N1CCC(Cc2c[nH]cn2)CC1
Ki (Histamine H3 receptor [1]): 18 nM | Kb (Histamine H3 receptor [2]): 39.8 nM

Compound: O=C(CCN1CCC(Cc2c[nH]cn2)CC1)NCc1ccc(Cl)cc1
Ki (Histamine H3 receptor [1]): 21 nM

Compound: O=S(=O)(CCCN1CCC(Cc2c[nH]cn2)CC1)c1ccccc1
Ki (Histamine H3 receptor [1]): 25 nM | Kb (Histamine H3 receptor [2]): 79.4 nM

Compound: O=C(NCCN1CCC(Cc2cnc[nH]2)CC1)c1ccc(Cl)cc1
Ki (Histamine H3 receptor [1]): 9 nM | Kb (Histamine H3 receptor [2]): 12.6 nM

Compound: c1ccc(OCCCN2CCC(Cc3c[nH]cn3)CC2)cc1
Kb (Histamine H3 receptor [2]): 5.01 nM

Compound: Clc1ccc(CCCCN2CCC(Cc3cnc[nH]3)CC2)cc1
Ki (Histamine H3 receptor [1]): 6 nM | Kb (Histamine H3 receptor [2]): 1.58 nM

Compound: COC(=O)c1ccc(OCCC(=O)N2CCC(Cc3c[nH]cn3)CC2)cc1
Ki (Histamine H3 receptor [1]): 625 nM

Compound: CCCCCCCN1CCC(Cc2cnc[nH]2)CC1
Kb (Histamine H3 receptor [2]): 2.51 nM

Compound: O=C(CCCN1CCC(Cc2cnc[nH]2)CC1)Nc1ccc(Cl)cc1
Ki (Histamine H3 receptor [1]): 17 nM | Kb (Histamine H3 receptor [2]): 5.01 nM

Compound: N#Cc1ccc(OCCCN2CCC(Cc3c[nH]cn3)CC2)cc1
Ki (Histamine H3 receptor [1]): 20 nM

Compound: O/N=C/c1ccc(OCCCN2CCC(Cc3c[nH]cn3)CC2)cc1
Ki (Histamine H3 receptor [1]): 44 nM

Compound: O=S(=O)(CCN1CCC(Cc2c[nH]cn2)CC1)Nc1ccc(Cl)cc1
Ki (Histamine H3 receptor [1]): 170 nM

Compound: O=C(NCCCN1CCC(Cc2cnc[nH]2)CC1)c1ccc(Cl)cc1
Ki (Histamine H3 receptor [1]): 13 nM

Compound: O=C(CCC(=O)N1CCC(Cc2c[nH]cn2)CC1)Nc1ccc(Cl)cc1
Ki (Histamine H3 receptor [1]): 970 nM

Compound: O=C(CCN1CCC(Cc2c[nH]cn2)CC1)Nc1ccc(Cl)cc1
Ki (Histamine H1 receptor): 290 nM | IC50 (Cytochrome P450 2D6): 40 nM | Kb (Histamine H3 receptor [2]): 0.0794 nM | Ki (Histamine H3 receptor [3]): 1.7 nM

Compound: O=C(CCN1CCC(Cc2c[nH]cn2)CC1)Nc1cccc(Cl)c1
Kb (Histamine H3 receptor [2]): 0.158 nM | Ki (Histamine H3 receptor [3]): 0.4 nM

Compound: O=C(CCOc1ccccc1)N1CCC(Cc2cnc[nH]2)CC1
Kb (Histamine H3 receptor [2]): 15.8 nM

Compound: O=C(CCCCN1CCC(Cc2cnc[nH]2)CC1)Nc1ccc(Cl)cc1
Ki (Histamine H3 receptor [1]): 40 nM

Compound: CN(C(=O)CCN1CCC(Cc2cnc[nH]2)CC1)c1ccc(Cl)cc1
Ki (Histamine H3 receptor [1]): 60 nM

Compound: O=C(CCCc1ccccc1)N1CCC(Cc2cnc[nH]2)CC1
Ki (Histamine H3 receptor [1]): 9 nM | Kb (Histamine H3 receptor [2]): 15.8 nM

Continued by falling Ki (Histamine H3 receptor [1]), values first:

Ki (Histamine H3 receptor [1]): 5 nM | Kb (Histamine H3 receptor [2]): 6.31 nM
Compound: c1ccc(CCCCN2CCC(Cc3cnc[nH]3)CC2)cc1

Ki (Histamine H3 receptor [1]): 3 nM | Kb (Histamine H3 receptor [2]): 1.58 nM
Compound: COc1ccc(NC(=O)CCN2CCC(Cc3cnc[nH]3)CC2)cc1

Ki (Histamine H3 receptor [1]): 3 nM | Kb (Histamine H3 receptor [2]): 1.58 nM
Compound: COC(=O)c1ccc(NC(=O)CCN2CCC(Cc3cnc[nH]3)CC2)cc1

Ki (Histamine H3 receptor [1]): 3 nM | Kb (Histamine H3 receptor [2]): 6.31 nM
Compound: O=C(CCN1CCC(Cc2cnc[nH]2)CC1)NC1CCCCC1

Ki (Histamine H3 receptor [1]): 2 nM | Kb (Histamine H3 receptor [2]): 3.98 nM
Compound: Clc1cccc(NCCCN2CCC(Cc3cnc[nH]3)CC2)c1

Ki (Histamine H3 receptor [1]): 2 nM | Kb (Histamine H3 receptor [2]): 1.26 nM
Compound: O=C(CCN1CCC(Cc2c[nH]cn2)CC1)Nc1ccccc1

Ki (Histamine H3 receptor [1]): 2 nM | Kb (Histamine H3 receptor [2]): 12.6 nM
Compound: Clc1cccc(OCCCN2CCC(Cc3cnc[nH]3)CC2)c1

Ki (Histamine H3 receptor [1]): 0.4 nM
Compound: c1nc(CC2CCNCC2)c[nH]1 [IMMEPIP]

Ki (Histamine H3 receptor [1]): 0.2 nM | IC50 (Cytochrome P450 2D6): 100 nM | Kb (Histamine H3 receptor [2]): 0.126 nM | Ki (Histamine H3 receptor [3]): 1.9 nM
Compound: O=C(CCN1CCC(Cc2c[nH]cn2)CC1)Nc1cccc(F)c1
